# ChEMBL document CHEMBL6121056, “Aculeapyridones A-Q, Pyranopyridone Alkaloids with Protective Effects against Acetaminophen-Induced Acute Liver Injury Discovered from a Coculture of Aspergillus aculeatinus WHUF0198 and a Penicillium sp” (2025)
# What was measured:
# Type in all cases: functional, Mus musculus
# [1] = test system: AML12; assay: Protection against acetaminophen-induced acute liver injury in AML12 cells at 10 uM incubated for 12 hrs by MTT assay relative to control
# [2] = test system: AML12; assay: Protection against acetaminophen-induced acute liver injury in AML12 cells at 5 uM incubated for 12 hrs by MTT assay relative to control
# [3] = test system: AML12; assay: Cytoprotective activity against acetaminophen-induced acute liver injury in AML12 cells assessed as reduction in ALT level at 5 uM measured after 12 hrs relative to control; parameters: scale not given: the % may be the effect or the level left
SMILES,Activity [1],Activity [2],Activity [3]
CC[C@@H](C)/C=C/C=C/C=C(\C)[C@@H]1Oc2c(-c3ccc(O)cc3)c[nH]c(=O)c2C(=O)[C@H]1C,-50%,-10%,–
COn1ccc2c(c1=O)[C@@H](O)[C@@H](C)[C@H](/C(C)=C/C=C/C=C/[C@H](C)CC(=O)O)O2,50%,132%,115%
CC[C@@H](C)/C=C/C=C/C=C(\C)[C@@H]1Oc2cc[nH]c(=O)c2[C@@H](O)[C@H]1C,-6.5%,94%,29%
CO[C@@H]1c2c(cc[nH]c2=O)O[C@@H](/C(C)=C/C=C/C=C/[C@H](CO)CCO)[C@@H]1C,59%,20%,99%
CC[C@@H](/C=C/C=C/C=C(\C)[C@@H]1Oc2cc[nH]c(=O)c2[C@@H](OC)[C@H]1C)C(=O)O,-43%,164%,96%
CC[C@H](/C=C/C=C/C=C(\C)[C@@H]1Oc2cc[nH]c(=O)c2[C@@H](O)[C@H]1C)C(=O)O,56%,7%,118%
C\C(=C/C=C/C=C/C(C)CC(=O)O)[C@@H]1Oc2cc[nH]c(=O)c2[C@@H](O)C1C (stereo partly specified),26%,66%,74%
CC[C@H](/C=C/C=C/C=C(\C)[C@@H]1Oc2ccn(OC)c(=O)c2[C@@H](O)[C@H]1C)CO,64%,61%,71%
CO[C@@H]1c2c(cc[nH]c2=O)O[C@@H](/C(C)=C/C=C/C=C/[C@H](C)CC(=O)O)[C@@H]1C,18%,120%,86%
CC[C@H](/C=C/C=C/C=C(\C)[C@@H]1Oc2ccn(OC)c(=O)c2[C@@H](O)[C@H]1C)C(=O)O,-14%,74%,52%
CC[C@H](/C=C/C=C/C=C(\C)[C@@H]1Oc2ccn(OC)c(=O)c2[C@@H](O)[C@H]1C)COC=O,21%,144%,79%
CC[C@H](/C=C/C=C/C=C(\C)[C@@H]1Oc2cc[nH]c(=O)c2[C@@H](O)[C@H]1C)CO,100%,17%,97%
CC[C@H](/C=C/C=C/C=C(\C)[C@@H]1Oc2cc[nH]c(=O)c2[C@@H](OC)[C@H]1C)COC=O,-32%,15%,–
CC[C@H](/C=C/C=C/C=C(\C)[C@@H]1Oc2cc[nH]c(=O)c2[C@@H](OC)[C@H]1C)CO,53%,125%,82%
CC[C@@H](C)/C=C/C=C/C=C(\C)[C@@H]1Oc2cc[nH]c(=O)c2[C@@H](OC)[C@H]1C,192%,30%,54%
CC(=O)N[C@@H](CS)C(=O)O [ACETYLCYSTEINE],165%,150%,45%
